In a compilation of properties of binary mixtures (doi:10.1021/acs.jced.9b00769):

Assay: xn = mol fraction of the nth substance listed
Settings: 100 kPa

CCCC[P+](CC)(CC)CC.N#Cc1ccc[n-]1 + OCCN(CCO)CCO
Settings	electrical conductivity, 293.15 K [S/m]	viscosity, 293.15 K [mPa·s]	viscosity, 298.15 K [mPa·s]	viscosity, 303.15 K [mPa·s]	viscosity, 313.15 K [mPa·s]
x1 = 0.002	0.0007	–	–	–	–
x1 = 0.007	0.0017	–	–	–	–
x1 = 0.009	0.0022	–	–	–	–
x1 = 0.018	0.0036	960	–	410	188
x1 = 0.023	0.0041	–	–	–	–
x1 = 0.029	–	–	633	408	184
x1 = 0.047	0.0055	–	–	–	–
x1 = 0.059	0.0059	1010	660	426	191
x1 = 0.089	0.0068	970	636	410	185
x1 = 0.104	–	940	614	397	177
x1 = 0.123	0.0077	–	–	–	–
x1 = 0.223	–	–	530	–	155
x1 = 0.272	0.0115	–	–	–	–
x1 = 0.413	–	680	439	284	136
x1 = 0.508	–	647	426	–	132
x1 = 0.537	0.0248	–	–	–	–
x1 = 0.763	0.0489	478	318	210	106
x1 = 1	0.147	187	137	104	62

CCCCCCCCCCCC[P+](CCCC)(CCCC)CCCC.N#Cc1ccc[n-]1 + OCCN(CCO)CCO
Settings	electrical conductivity [S/m]	viscosity [mPa·s]
293.15 K, x1 = 0.003	0.0006	–
293.15 K, x1 = 0.004	0.0008	–
293.15 K, x1 = 0.005	0.0011	–
293.15 K, x1 = 0.007	0.0014	–
293.15 K, x1 = 0.01	0.0019	–
293.15 K, x1 = 0.017	–	980
293.15 K, x1 = 0.022	0.003	–
293.15 K, x1 = 0.027	0.0032	–
293.15 K, x1 = 0.042	0.0036	–
293.15 K, x1 = 0.054	0.0038	1054
293.15 K, x1 = 0.075	0.0041	–
293.15 K, x1 = 0.177	0.0038	1025
293.15 K, x1 = 0.244	0.0039	970
293.15 K, x1 = 0.325	0.0041	930
293.15 K, x1 = 0.431	0.0043	830
293.15 K, x1 = 0.755	0.0057	680
298.15 K, x1 = 0.017	–	654
298.15 K, x1 = 0.054	–	680
298.15 K, x1 = 0.096	–	690
298.15 K, x1 = 0.121	–	690
298.15 K, x1 = 0.177	–	680
298.15 K, x1 = 0.244	–	646
298.15 K, x1 = 0.431	–	569
298.15 K, x1 = 0.538	–	532
303.15 K, x1 = 0.035	–	435
303.15 K, x1 = 0.096	–	452
303.15 K, x1 = 0.121	–	450
303.15 K, x1 = 0.177	–	450
303.15 K, x1 = 0.244	–	432
303.15 K, x1 = 0.431	–	391
303.15 K, x1 = 0.538	–	370
313.15 K, x1 = 0.017	–	205
313.15 K, x1 = 0.035	–	205
313.15 K, x1 = 0.054	–	208
313.15 K, x1 = 0.121	–	216
313.15 K, x1 = 0.177	–	219
313.15 K, x1 = 0.244	–	211
313.15 K, x1 = 0.431	–	200
313.15 K, x1 = 0.538	–	194
313.15 K, x1 = 0.755	–	182
313.15 K, x1 = 1	–	166

OCCN(CCO)CCO + CCCCCCCCCCCC[P+](CC)(CC)CC.N#Cc1ccc[n-]1
x2 = 0
Settings	viscosity [mPa·s]
293.15 K	940
298.15 K	611
303.15 K	413
313.15 K	204

CCCCCCCCCCCC[P+](CC)(CC)CC.N#Cc1ccc[n-]1 + OCCN(CCO)CCO
Settings	electrical conductivity [S/m]	viscosity [mPa·s]
293.15 K, x1 = 0.003	0.0008	–
293.15 K, x1 = 0.005	0.0012	–
293.15 K, x1 = 0.007	0.0016	–
293.15 K, x1 = 0.008	0.0019	–
293.15 K, x1 = 0.013	0.0027	–
293.15 K, x1 = 0.017	0.0033	920
293.15 K, x1 = 0.02	0.0036	–
293.15 K, x1 = 0.025	0.0038	–
293.15 K, x1 = 0.042	0.0051	–
293.15 K, x1 = 0.051	0.0053	1009
293.15 K, x1 = 0.065	0.0056	–
293.15 K, x1 = 0.08	0.0058	–
293.15 K, x1 = 0.09	0.006	–
293.15 K, x1 = 0.091	–	1032
293.15 K, x1 = 0.116	0.0062	–
293.15 K, x1 = 0.117	–	1007
293.15 K, x1 = 0.145	–	920
293.15 K, x1 = 0.28	–	860
293.15 K, x1 = 0.285	0.0061	–
293.15 K, x1 = 0.404	0.0069	–
293.15 K, x1 = 0.512	0.0081	–
293.15 K, x1 = 0.687	–	840
293.15 K, x1 = 0.701	0.0141	–
293.15 K, x1 = 0.809	–	720
293.15 K, x1 = 1	0.0267	423
298.15 K, x1 = 0.017	–	608
298.15 K, x1 = 0.035	–	641
298.15 K, x1 = 0.091	–	680
298.15 K, x1 = 0.117	–	649
298.15 K, x1 = 0.145	–	610
298.15 K, x1 = 0.28	–	573
298.15 K, x1 = 0.473	–	583
298.15 K, x1 = 0.687	–	576
298.15 K, x1 = 1	–	310
303.15 K, x1 = 0.017	–	396
303.15 K, x1 = 0.051	–	418
303.15 K, x1 = 0.091	–	435
303.15 K, x1 = 0.117	–	423
303.15 K, x1 = 0.145	–	403
303.15 K, x1 = 0.207	–	389
303.15 K, x1 = 0.28	–	379
303.15 K, x1 = 0.473	–	395
303.15 K, x1 = 0.687	–	395
303.15 K, x1 = 0.809	–	353
303.15 K, x1 = 1	–	214
313.15 K, x1 = 0.017	–	181
313.15 K, x1 = 0.035	–	194
313.15 K, x1 = 0.091	–	198
313.15 K, x1 = 0.145	–	192
313.15 K, x1 = 0.28	–	183
313.15 K, x1 = 0.473	–	194
313.15 K, x1 = 0.687	–	199
313.15 K, x1 = 0.809	–	184
313.15 K, x1 = 1	–	114

OCCN(CCO)CCO + CCCC[P+](CC)(CC)CC.N#Cc1ccc[n-]1
x2 = 0
Settings	viscosity [mPa·s]
293.15 K	940
298.15 K	611
303.15 K	413
313.15 K	204
